Measurements as given in patent US11186585B2 (priority 2018, dated 2021).
Where “and” joins values, the source holds several entries; their conditions need not be identical. Equal values may be shown once. Where a name gives a salt, the structure may show the parent alone.

What was measured:
[1] = system: Sprague-Dawley rats; test: Antinociceptive activity, cold ethanol tail-flick test after oral gavage; format: in vivo, rat; conditions: for analgesia in rats, in words: given orally, compared with equivalent dose of Nalbuphine (parent opioid); for Analgesia (rat): oral gavage in sesame oil, 60 uM/kg, one dose, tail-flick at −20° C., cutoff 40 seconds
[2] = Stability in the simulated gastro-intestinal fluid (sGIF); conditions: 0.5% pepsine in 0.1N aqueous HCl, 37° C.; acceptance: NLT 80% of the derivative still intact after 4 hrs
[3] = Stability in human plasma; conditions: 37° C., acceptance criteria: NLT than 20% of hydrolysis after 4 hrs
[4] = system: rats; test: Randall-Selitto test after SC dose; format: in vivo, rat; conditions: NB-33.HCl 3.9 mg/kg; for Randall-Selitto (g), individual animal: NB.HCl 3 mg/kg; for Randall-Selitto (g), Mean: mean of 5, NB.HCl 3 mg/kg
Source text: FIG. 13 illustrate in the graphical form the results for 1310 NB-33, marked 1310, in comparison to the base NB compound NB, marked 1320 in FIG. 13.

With `C/C=C(\C)C(=O)Oc1ccc2c3c1OC1C(O)CCC4(O)C(C2)N(CC2CCC2)CCC314` (stereo not shown) [NB-52, 3-(cyclobutylmethyl)-4a,7-dihydroxy-2,3,4,4a,5,6,7,7a-octahydro-1H-4,12-methanobenzofuro[3,2-e]isoquinolin-9-yl (E)-2-methylbut-2-enoate] the “analgesia in rats, in words” value [1] was “no analgesia”, the “Analgesia (rat)” value [1] was “Inactive” and the “Stable in sGIF” value [2] was “Yes”. The Stable in plasma [3] was “No”.

With `CC=C(OC)C(=O)Oc1ccc2c3c1OC1C(O)CCC4(O)C(C2)N(CC2CCC2)CCC314` (stereo not shown) [NB-58, 3-(cyclobutylmethyl)-4a,7-dihydroxy-2,3,4,4a,5,6,7,7a-octahydro-1H-4,12-methanobenzofuro[3,2-e]isoquinolin-9-yl 2-methoxybut-2-enoate] the “Analgesia (rat)” value [1] was “No”, the “Stable in sGIF” value [2] was “No” and the Stable in plasma [3] was “No”.

In the case of `O=C(/C=C/c1ccccc1)Oc1ccc2c3c1OC1C(O)CCC4(O)C(C2)N(CC2CCC2)CCC314` (stereo not shown) [NB-78, 3-(cyclobutylmethyl)-4a,7-dihydroxy-2,3,4,4a,5,6,7,7a-octahydro-1H-4,12-methanobenzofuro[3,2-e]isoquinolin-9-yl cinnamate], the “analgesia in rats, in words” value [1] is reported as “no analgesia”, the “Analgesia (rat)” value [1] is reported as “Inactive” and the “Stable in sGIF” value [2] is reported as “Yes”. For the same compound, the Stable in plasma [3] was “No”.

For `CC(C)C(=O)Oc1ccc2c3c1OC1C(O)CCC4(O)C(C2)N(CC2CCC2)CCC314` (stereo not shown) [NB-46, 3-(cyclobutylmethyl)-4a,7-dihydroxy-2,3,4,4a,5,6,7,7a-octahydro-1H-4,12-methanobenzofuro[3,2-e]isoquinolin-9-yl isobutyrate], the “Analgesia (rat)” value [1] was “No”, the “Stable in sGIF” value [2] was “Yes” and the Stable in plasma [3] was “Yes”.

With `C=CCCCCCCCCC(=O)Oc1ccc2c3c1OC1C(O)CCC4(O)C(C2)N(CC2CCC2)CCC314` (stereo not shown) [NB-31, 3-(cyclobutylmethyl)-4a,7-dihydroxy-2,3,4,4a,5,6,7,7a-octahydro-1H-4,12-methanobenzofuro[3,2-e]isoquinolin-9-yl undec-10-enoate] the “analgesia in rats, in words” value [1] was “no analgesia”, the “Analgesia (rat)” value [1] was “Inactive” and the “Stable in sGIF” value [2] was “Yes”. For the same compound, the Stable in plasma [3] was “No”.

In the case of `Oc1ccc2c3c1O[C@H]1[C@@H](O)CC[C@@]4(O)[C@@H](C2)N(CC2CCC2)CC[C@]314` [NB.HCl], the “Randall-Selitto (g), individual animal” value ([4]; Post-dose 0.5 hr) is reported as 78 g and 89 g and 93 g and 107 g and 134 g, the “Randall-Selitto (g), Mean” value ([4]; Post-dose 0.5 hr) is reported as 100.2 g and the “Randall-Selitto (g), individual animal” value ([4]; Post-dose 1 hr) is reported as 63 g and 62 g and 92 g and 90 g and 96 g. The “Randall-Selitto (g), Mean” value ([4]; Post-dose 1 hr) was 80.6 g, the “Randall-Selitto (g), individual animal” value ([4]; Post-dose 2 hr) was 58 g and 71 g and 103 g and 69 g and 93 g and the “Randall-Selitto (g), Mean” value ([4]; Post-dose 2 hr) was 78.8 g. For the same compound, the “Randall-Selitto (g), individual animal” value ([4]; Post-dose 4 hr) was 64 g and 66 g and 93 g (2×) and 61 g, the “Randall-Selitto (g), Mean” value ([4]; Post-dose 4 hr) was 75.4 g and the “Randall-Selitto (g), individual animal” value ([4]; Post-dose 6 hr) was 50 g and 71 g and 82 g and 69 g and 85 g. For the same compound, the “Randall-Selitto (g), Mean” value ([4]; Post-dose 6 hr) was 71.4 g, the “Randall-Selitto (g), individual animal” value ([4]; Pre-treatment (baseline)) was 89 g and 92 g and 100 g and 80 g and 91 g and the “Randall-Selitto (g), Mean” value ([4]; Pre-treatment (baseline)) was 90.4 g.

For `CC(C)=CCC/C(C)=C/C(=O)Oc1ccc2c3c1OC1C(O)CCC4(O)C(C2)N(CC2CCC2)CCC314` (stereo not shown) [NB-32, 3-(cyclobutylmethyl)-4a,7-dihydroxy-2,3,4,4a,5,6,7,7a-octahydro-1H-4,12-methanobenzofuro[3,2-e]isoquinolin-9-yl (E)-3,7-dimethylocta-2,6-dienoate], the “analgesia in rats, in words” value [1] was “no analgesia”, the “Analgesia (rat)” value [1] was “Inactive” and the “Stable in sGIF” value [2] was “Yes”. The Stable in plasma [3] was “No”.

In the case of `CC(C)=CC(=O)Oc1ccc2c3c1OC1C(O)CCC4(O)C(C2)N(CC2CCC2)CCC314` (stereo not shown) [NB-51, 3-(cyclobutylmethyl)-4a,7-dihydroxy-2,3,4,4a,5,6,7,7a-octahydro-1H-4,12-methanobenzofuro[3,2-e]isoquinolin-9-yl 3-methylbut-2-enoate], the “Analgesia (rat)” value [1] is reported as “Inactive”, the “Stable in sGIF” value [2] is reported as “Yes” and the Stable in plasma [3] is reported as “No”.

In the case of `CC(C)=CCC/C(C)=C/COc1ccc2c3c1OC1C(O)CCC4(O)C(C2)N(CC2CCC2)CCC314` (stereo not shown) [NB-20, (E)-3-(cyclobutylmethyl)-9-((3,7-dimethylocta-2,6-dien-1-yl)oxy)-1,2,3,4,5,6,7,7a-octahydro-4aH-4,12-methanobenzofuro[3,2-e]isoquinoline-4a,7-diol], the “Analgesia (rat)” value [1] is reported as “No”, the “Stable in sGIF” value [2] is reported as “No” and the Stable in plasma [3] is reported as “No”.

With `C/C=C/C=C/C(=O)Oc1ccc2c3c1OC1C(OC(C)=O)CCC4(O)C(C2)N(CC2CCC2)CCC314` (stereo not shown) [NB-76, 7-acetoxy-3-(cyclobutylmethyl)-4a-hydroxy-2,3,4,4a,5,6,7,7a-octahydro-1H-4,12-methanobenzofuro[3,2-e]isoquinolin-9-yl (2E,4E)-hexa-2,4-dienoate] the “Analgesia (rat)” value [1] was “moderate”, the “Stable in sGIF” value [2] was “Yes” and the Stable in plasma [3] was “No”.

With `CC(C)=CCC/C(C)=C/CC/C(C)=C/COc1ccc2c3c1OC1C(O)CCC4(O)C(C2)N(CC2CCC2)CCC314` (stereo not shown) [NB-28, 3-(cyclobutylmethyl)-9-(((2E,6E)-3,7,11-trimethyldodeca-2,6,10-trien-1-yl)oxy)-1,2,3,4,5,6,7,7a-octahydro-4aH-4,12-methanobenzofuro[3,2-e]isoquinoline-4a,7-diol] the “Analgesia (rat)” value [1] was “No”, the “Stable in sGIF” value [2] was “No” and the Stable in plasma [3] was “No”.
